Assay [1] concerns the target T1, recombinant hMAO-A (Homo sapiens, UniProt P21397).
T1 sequence (P21397 1-527): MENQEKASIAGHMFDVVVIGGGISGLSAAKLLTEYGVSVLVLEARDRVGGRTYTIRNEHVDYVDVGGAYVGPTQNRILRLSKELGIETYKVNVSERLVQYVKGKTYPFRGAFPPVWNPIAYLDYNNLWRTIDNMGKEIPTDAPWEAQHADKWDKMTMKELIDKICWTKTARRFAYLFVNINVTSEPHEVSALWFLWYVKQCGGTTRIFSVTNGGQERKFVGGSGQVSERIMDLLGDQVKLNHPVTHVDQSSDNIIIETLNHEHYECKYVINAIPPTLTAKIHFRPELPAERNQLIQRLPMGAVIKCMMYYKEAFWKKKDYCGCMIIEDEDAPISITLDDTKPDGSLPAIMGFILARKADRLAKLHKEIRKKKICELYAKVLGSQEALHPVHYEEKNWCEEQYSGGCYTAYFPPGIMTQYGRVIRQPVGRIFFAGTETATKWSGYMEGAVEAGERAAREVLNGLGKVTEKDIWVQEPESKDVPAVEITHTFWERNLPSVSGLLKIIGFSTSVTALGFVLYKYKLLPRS
The assay can be described thus: MAO-A inhibition assay. The assay is classed as biochemical. As to conditions: read-out: MAO inhibition MAO-A %. The procedure: For MAO inhibition studies, the enzyme solution (0.5 U/mL recombinant hMAO-A or 1.5 U/mL recombinant hMAO-B) was incubated with an inhibitor solution containing 10 µM of the compounds for 30 min at 37 °C. Next, horseradish peroxidase (200 U/mL), Ampliflu Red (20 mM) and tyramine hydrochloride (100 mM) (Sigma-Aldrich) were added, and absorbance was measured at 570 nm every 5 min for 30 min. The percentage of inhibition was calculated from the absorbance values.

The test system of assay [2] is U87 glioblastoma cells. As to the kind of experiment: MTT cell viability, U87. The assay is classed as cell-based. Particulars: Homo sapiens, 72 h, read-out: IC50 U87 (GBM). The procedure:
U87-MG, U251-MG and NCI-H1299 cells were purchased from ATCC, while MKN45 was obtained from the Leibniz Institute DSMZ-German Collection of Microorganisms and Cell Cultures and the RWP1 cell line was kindly provided by Dr. Francisco Real. Cells were cultured in DMEM or RPMI (Gibco, Waltham, MA, USA) supplemented with 10% FBS, 100 U/mL penicillin and streptomycin and 2 mM L-Glutamine. Patient-derived glioma neural stem cells (GNS166 and GNS179) were kindly provided by Dr. Steve Pollard. These cells were cultured in adhesion plates treated with laminin A in DMEM/F12 media (Gibco) supplemented with N2 (Gibco), B27 (Gibco), D-(+)-Glucose solution 45% (Sigma-Aldrich, Burlington, MA, USA), basic Fibroblast Growth Factor (Gibco) and epidermal growth factor (Sigma-Aldrich). Normal human astrocytes (NHAs) were purchased from ScienCell and cultured using an astrocyte medium kit (ScienCell, San Diego, CA, USA) supplemented with FBS and Astrocyte Growth Supplement (AGS). All cells were maintained at standard conditions of 37 °C, 95% humidity, 21% O2 and 5% CO2, and cultures were regularly tested for Mycoplasma.
Cells were seeded in 96-well plates at a density of 1.5 × 10^3 or 5 × 10^3 cells/well (conventional cell lines or GNS and NHAs, respectively) and incubated overnight. Next, cells were treated with increasing concentrations of the compounds, and after 72 h, they were incubated for 3.5 h with MTT. Then, absorbance at 570 nm was measured. GraphPad Prism software version 10.4.1 was used to calculate the IC50 values.

Assay [3] concerns the target T2, BChE (Homo sapiens, UniProt P06276). As to the kind of experiment: BChE inhibition, Ellman's colorimetric method. The assay is classed as biochemical. As to conditions: read-out: ChE inhibition BChE %. The procedure: The inhibitory capacity of the compounds on ChEs was assessed using Ellman’s colorimetric method. Briefly, an inhibitor solution containing 10 µM of the MSMs and 0.3 mM DTNB was incubated for 20 min with the enzyme solution ([…]) at 37 °C. […] Inhibition percentages were calculated from these values. […] Further, enzyme kinetics were studied using different substrate and inhibitor concentrations. Results were represented in a Lineweaver–Burk plot using GraphPad Prism, and the constant of inhibition (Ki) was estimated from the point at which the line cuts the x-axis in the secondary plot.
(In general: In Ellman's method for cholinesterases, released thiocholine reacts with DTNB.)

In assay [4] the target is T2, BChE. The assay can be described thus: BChE inhibition, Ellman's colorimetric method. It counts as biochemical. As to conditions: read-out: ChE inhibition BChE %. This is another data set of the same source.
In assay [5] the test system is HDAC6. The assay can be described thus: Western blot of acetylated α-tubulin (HDAC6 target). It counts as cell-based, human. Particulars: GNS166 and U87 cells. How it is done: Sodium dodecyl sulfate–polyacrylamide gel electrophoresis was performed. Primary antibodies against HDAC1 (Abcam, Cambridge, UK) and HDAC6 (Cell Signaling, Dancers, MA, USA) and their main targets, acetylated H3 (Cell Signaling) and acetylated α-tubulin (Abcam), were used; acetylated lysine (Cell Signaling) and β-actin (Sigma-Aldrich) were used as endogenous controls. Secondary antibodies conjugated to horseradish peroxidase were anti-rabbit or anti-mouse (Cell Signaling). Proteins were detected using the iBright imaging system and NOVEX ECL Chemi Substrate or SuperSignal West Femto Maximum Sensitivity Substrate (ThermoFisher, Waltham, MA, USA).

Assay [6] deals with GNS166, GNS179, U87 and U251 cells. As to the kind of experiment: Immunofluorescence of Ki67, p-H3 and cleaved caspase-3. It counts as cell-based, human. Particulars: 1, 3 and 5 μM, 48 h. The procedure: For immunofluorescence assays, cells were seeded at a density of 2 × 10^4 cells/well in 8-well immunofluorescence chambers (LabTek Thermo, Waltham, MA, USA) and incubated overnight. Then, cells were treated for 48 h and fixed with 4% PFA. Primary antibodies against phospho-histone H3 (p-H3) (Abcam), cleaved caspase-3 (Casp3) (R&D Systems, Minneapolis, MN, USA) and Ki67 (Abcam) and secondary antibodies Alexa Fluor anti-mouse and anti-rabbit (Invitrogen, Carlsbad, CA, USA) were used. Nuclei were stained with DAPI (Sigma-Aldrich). Pictures were taken with an Axio Observer 7 epifluorescence microscope, and Qupath version 0.6.0 was used for quantifications. Percentages of Ki67-, p-H3- and Casp3-positive cells were calculated, taking into account the number of nuclei.

Here are results for five compounds from article PMC12736535, “Generation and Characterization of Novel Contilisant+Tubastatin a Multitarget Small Molecules Against Glioblastoma” (Pharmaceutics, 2025).

As a reminder, the inhibition is the drop in the measured response relative to a control, in per cent. Usually IC50 stands for the concentration that inhibits the measured activity by half.

T2 sequence (P06276 29-602, species assumed): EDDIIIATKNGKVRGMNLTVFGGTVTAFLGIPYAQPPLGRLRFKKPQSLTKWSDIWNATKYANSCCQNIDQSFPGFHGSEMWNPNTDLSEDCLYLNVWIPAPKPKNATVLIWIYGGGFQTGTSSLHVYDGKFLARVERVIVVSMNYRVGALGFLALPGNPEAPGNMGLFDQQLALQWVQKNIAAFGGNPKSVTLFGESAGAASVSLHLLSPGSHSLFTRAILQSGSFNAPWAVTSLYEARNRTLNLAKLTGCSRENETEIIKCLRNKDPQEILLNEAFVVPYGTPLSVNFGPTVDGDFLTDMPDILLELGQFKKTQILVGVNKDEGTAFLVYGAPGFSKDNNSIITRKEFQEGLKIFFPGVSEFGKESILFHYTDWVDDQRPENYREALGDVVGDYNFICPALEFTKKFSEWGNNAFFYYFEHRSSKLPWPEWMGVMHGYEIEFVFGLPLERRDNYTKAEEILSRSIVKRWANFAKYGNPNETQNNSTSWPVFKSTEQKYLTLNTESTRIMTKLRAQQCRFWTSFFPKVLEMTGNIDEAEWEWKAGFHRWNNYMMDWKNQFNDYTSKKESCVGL

`C#CCN(C)CCCOc1ccc(Cl)cc1Cl` [Clorgiline, reference compound]: in assay [1], the inhibition at 1 µM was 100% and the inhibition at 10 µM stood at 98%. Regarding `CCCN(CCC)NC(=O)c1ccc(S(=O)(=O)n2ccc3cc(OC)ccc32)cc1` [FRB21], the IC50 in assay [2] was greater than 100 µM. On the same count and under the same terms, to `CCCNNC(=O)c1ccc(S(=O)(=O)n2ccc3cc(OC)ccc32)cc1` [FRB24] belongs 7.1 µM. Turning to `CCN(C)C(=O)Oc1cccc([C@H](C)N(C)C)c1` [Rivastigmine, reference compound], in assay [3], the inhibition at 10 µM was 100%. For the same compound, the inhibition at 1 µM in assay [4] worked out at 100%.

Turning to `CN1CCc2c(c3ccccc3n2Cc2ccc(C(=O)NO)cc2)C1` [Tubastatin A], the “levels of acetyl-α-tubulin” value in assay [5] is listed as “higher levels of acetylated α-tubulin than the FRBs”. Also, the “cleaved caspase-3-positive cells” value in assay [6] is reported as “slightly increased”.
